# Data from patent EP0193189A1, “Novel compound, its production and insecticidal and acaricidal composition containing it as an active ingredient” (SUMITOMO CHEMICAL COMPANY, LIMITED, priority 1985, dated 1986).
# Test system: tobacco cutworms (Spodoptera litura)
# Test: Test Example 2: tobacco cutworm larvae on treated artificial feed
# Format: in vivo
# Details: Spodoptera litura, 144 h; 150 ppm solution, 2 ml in 13 g artificial feed; 4th instar larvae; six days after; read-out: Mortality (%)
# Source text: The emulsifiable concentrates of the following present compounds obtained according to Formulation example 2 were each diluted with water to obtain respective 667 times dilution aqueous solutions (corresponding to 150 ppm) containing said compounds, respectively. Two ml of thus diluted solutions were impregnated into the artificial feeds (13 g) for tobacco cutworms (Spodoptera litura) and thus prepared feeds were placed in polyethylene cups of 11 cm in diameter, respectively. Ten of the 4th instar larvae were liberated thereon.
# Six days after, the dead and alive of the larvae were examined to calculate the mortality (two replications).
row,Structure (SMILES),mortality at 150 ppm [%]
1,C#CC(C)(CCCc1ccc(F)c(Oc2ccccc2)c1)c1ccc(OCC)cc1 (stereo not shown) [(4)],100
2,C#CC(C)(CCCc1ccc(F)c(Oc2ccccc2)c1)c1ccc(OCC)c(Cl)c1 (stereo not shown) [(11)],100
3,C#CC(C)(CCCc1ccc(F)c(Oc2ccccc2)c1)c1ccc(CC)cc1 (stereo not shown) [(39)],100
4,"C=CC(C)(CCCc1cccc(Oc2ccccc2)c1)c1ccc(OCC)cc1 (stereo not drawn) [(1), 3-(4-ethoxyphenyl)-3-methyl-6-(3-phenoxyphenyl)-l-hexene]",100

# Test system: houseflies (Musca domestica) of WHO strains
# Test: Test Example 6: housefly filter paper and sucrose bait test
# Format: in vivo
# Details: 0.7 ml on filter paper with sucrose bait, adult females, after 48 hours, read-out: LC50 value (ppm)
# Description: On the bottom of a polyethylene cup of 5.5 cm- in diameter was placed a piece of filter paper of the same size as the bottom, and 0.7 ml of a test solution, prepared by diluting the emulsifiable concentrates of the following present compounds and control compounds prepared according to Formulation example 2 to a prescribed concentration with water, was added dropwise to the filter paper. Thirty milligrams of sucrose were uniformly placed on the filter paper as bait. Thereafter, 10 adult female houseflies (Musca domestica) of WHO strains were liberated in the cup, which was then covered with a lid. After 48 hours, the dead and alive were examined to obtain LC50 value (50% lethal concentration) (two replications).
row,Structure (SMILES),LC50 [µg/mL]
1,C#CC(C)(CCCc1ccc(F)c(Oc2ccccc2)c1)c1ccc(OCC)cc1 (stereo not shown) [(4)],18
2,C#CC(C)(CCCc1ccc(F)c(Oc2ccccc2)c1)c1ccc(OCC)c(Cl)c1 (stereo not shown) [(11)],12
3,C#CC(C)(CCCc1ccc(F)c(Oc2ccccc2)c1)c1ccc(CC)cc1 (stereo not shown) [(39)],17

# Test system: brown rice planthoppers (Nila^parvata luqens)
# Test: Test Example 7: spray on potted rice plants, brown rice planthopper, residual effect
# Format: in vivo
# Details: 20 h; 100 ppm spray, 20 ml/2 pots; residual effect; twenty hours after liberation; read-out: Mortality (%) liberated 4 days after application
# Description: The emulsifiable concentrates of the following compounds and control compounds obtained according to Formulation example 2 were each diluted with water one thousand times (corresponding to 100 ppm) and each of thus prepared solutions was sprayed at the rate of 20 ml/2 pots to the rice plant seedlings planted in Wagner pots having a surface area of one ten thousandth are. After air-drying, the treated plants were covered with the iron wire cages, and about 15 adults of brown rice planthoppers (Nila^parvata luqens) were liberated thereto. Further, about 15 adults thereof were also liberated thereto 4 days after the application to examine the residual effects. Twenty hours after each liberation, the dead and alive adults were examined to calculate the mortality.
row,Structure (SMILES),mortality at 100 ppm [%]
1,C#CC(C)(CCCc1ccc(F)c(Oc2ccccc2)c1)c1ccc(OCC)cc1 (stereo not shown) [(4)],100
2,"C=CC(C)(CCCc1cccc(Oc2ccccc2)c1)c1ccc(OCC)cc1 (stereo not drawn) [(1), 3-(4-ethoxyphenyl)-3-methyl-6-(3-phenoxyphenyl)-l-hexene]",100

# Same assay, conditions: 20 h; 100 ppm spray, 20 ml/2 pots; twenty hours after liberation; read-out: Mortality (%) liberated just after air-drying
row,Structure (SMILES),mortality at 100 ppm [%]
1,C#CC(C)(CCCc1ccc(F)c(Oc2ccccc2)c1)c1ccc(OCC)cc1 (stereo not shown) [(4)],100
2,"C=CC(C)(CCCc1cccc(Oc2ccccc2)c1)c1ccc(OCC)cc1 (stereo not drawn) [(1), 3-(4-ethoxyphenyl)-3-methyl-6-(3-phenoxyphenyl)-l-hexene]",100

# Test system: rice stem borer (Chilo suppressalis)
# Test: Test Example 5: rice stem borer larvae on treated artificial feed
# Format: in vivo
# Details: 1 ml solution in artificial feed, larvae 10 days old, read-out: LC50 value (ppm)
# Source text: The emulsifiable concentrates of the following present compounds and control compounds obtained according to Formulation example 2 were each diluted with water to a prescribed concentration, and one ml each of thus prepared solutions was impregnated into the artificial feeds for rice stem borer (Chilo suppressalis) which had been previously prepared in polyethylene cups of 5.5 cm in diameter, respectively. Ten of the larvae of the 10 days old were liberated thereon. The dead and alive larvae were examined to obtain LC50 value (50% lethal concentration) (two replications).
row,Structure (SMILES),LC50 [µg/mL]
1,C#CC(C)(CCCc1ccc(F)c(Oc2ccccc2)c1)c1ccc(OCC)cc1 (stereo not shown) [(4)],1.9
2,C#CC(C)(CCCc1ccc(F)c(Oc2ccccc2)c1)c1ccc(OCC)c(Cl)c1 (stereo not shown) [(11)],2.3

# Test system: common mosquito (Culex pipiens pallens)
# Test: Test Example 1: common mosquito larvae in diluted emulsifiable concentrate, mortality and emergence inhibition
# Format: in vivo
# Details: Culex pipiens, 24 h; 3.5 ppm; 20 last instar larvae; after one day; read-out: Mortality
# Description: The emulsifiable concentrates of the following present compounds obtained according to Formulation example 2 were each diluted with water so as to obtain respective aqueous solutions containing 3.5 ppm of said compounds, respectively. One hundred ml of thus diluted aqueous solutions were poured into respective polyethylene cups of 180 ml volume, and 20 of the last instar larvae of common mosquito (Culex pipiens pallens) were liberated thereto. After one day, the dead or alive of the larvae were examined.
# Thereafter, the feed was added to respective cups and the number of emerged pupae of the respective cups was counted when all the pupae of no treatment group had emerged to calculate the inhibitory ratios of the emergence.
# The mortality and the inhibitory ratio of the emergence are shown according to the following three criteria: • mortality: A; 90% or more, • B; less than 90% to 10%, • C; less than 10%. • inhibitory: A; 90% or more, ratio of • emergence B; less than 90% to 80% • C; less than 80%.
row,Structure (SMILES),mortality at 3.5 ppm [%]
1,C#CC(C)(CCCc1ccc(F)c(Oc2ccccc2)c1)c1ccc(OCC)cc1 (stereo not shown) [(4)],> 90
2,C#CC(C)(CCCc1ccc(F)c(Oc2ccccc2)c1)c1ccc(OCC)c(Cl)c1 (stereo not shown) [(11)],> 90
3,C#CC(C)(CCCc1ccc(F)c(Oc2ccccc2)c1)c1ccc(CC)cc1 (stereo not shown) [(39)],> 90
4,"C=CC(C)(CCCc1cccc(Oc2ccccc2)c1)c1ccc(OCC)cc1 (stereo not drawn) [(1), 3-(4-ethoxyphenyl)-3-methyl-6-(3-phenoxyphenyl)-l-hexene]",> 90

# Same assay, conditions: Culex pipiens; 3.5 ppm; counted when all pupae of no treatment group had emerged; read-out: Inhibitory ratio of emergence
row,Structure (SMILES),pest or weed control at 3.5 ppm [%]
1,C#CC(C)(CCCc1ccc(F)c(Oc2ccccc2)c1)c1ccc(OCC)cc1 (stereo not shown) [(4)],> 90
2,C#CC(C)(CCCc1ccc(F)c(Oc2ccccc2)c1)c1ccc(OCC)c(Cl)c1 (stereo not shown) [(11)],> 90
3,C#CC(C)(CCCc1ccc(F)c(Oc2ccccc2)c1)c1ccc(CC)cc1 (stereo not shown) [(39)],> 90
4,"C=CC(C)(CCCc1cccc(Oc2ccccc2)c1)c1ccc(OCC)cc1 (stereo not drawn) [(1), 3-(4-ethoxyphenyl)-3-methyl-6-(3-phenoxyphenyl)-l-hexene]",> 90

# Test system: carmine spider mite (Tetranychus cinnabarinus)
# Test: Test Example 8: carmine spider mite on potted kidney bean, degree of damage
# Format: in vivo
# Details: 500 ppm spray 10 ml/pot plus 2 ml soil treatment; after 8 days
# Description: The female adults of carmine spider mite (Tetranychus cinnabarinus) were put at a rate of 10 adults/leaf on the leaves of potted kidney bean (at the primordial leaf stage) which had elapsed 7 days after sowing, and placed in a constant-temperature room kept at 25°C. After 6 days, the 200-fold aqueous dilute solutions (corresponding to 500 ppm), prepared from the emulsifiable concentrates of the following present compounds and control compounds prepared according to Formulation example 2, were each sprayed at a rate of 10 ml/pot on a turn table. At the same time, the soil in the pot was treated with 2 ml of each aqueous solution. After 8 days, the degree of damage of the plant by the mite was examined.
# Criteria of the effect: • - : No damage is observed. • + : Slight damage is observed. • ++: The same damage as in the untreated plot is observed.
row,Structure (SMILES),Degree of damage
1,C#CC(C)(CCCc1ccc(F)c(Oc2ccccc2)c1)c1ccc(CC)cc1 (stereo not shown) [(39)],- ~ +
2,"C=CC(C)(CCCc1cccc(Oc2ccccc2)c1)c1ccc(OCC)cc1 (stereo not drawn) [(1), 3-(4-ethoxyphenyl)-3-methyl-6-(3-phenoxyphenyl)-l-hexene]",- ~ +

# Test system: not listed separately
# Test: Test Example 9: fish toxicity test
# Format: in vivo, Cyprinida carpio
# Details: water; young carp; forty-eight hours; 25 ± 1°C; Probit method; read-out: LC50 value (ppm)
# Description: Twenty liters of each of the aqueous solutions containing the prescribed concentrations of the present compounds and comparative control one, and 10 young carp were liberated thereto. Forty-eight hours after, the dead and alive carp were examined to obtain LC50 value, (50% lethal concentration) according to Probit method. All the tests were carried out in thermostatic aquaria whose temperatures were kept at 25 ± 1°C.
# Tested fish: young Japanese carp (Cyprinida carpio) Average body length ± S.D.: 2.94 ± 0.19 cm. Average.body weight ± S.D.: 0.65 ± 0.13 g.
row,Structure (SMILES),LC50 at 48 h [µg/mL]
1,C#CC(C)(CCCc1ccc(F)c(Oc2ccccc2)c1)c1ccc(OCC)cc1 (stereo not shown) [(4)],> 10

# Test system: resistant strain of green rice leafhopper (Nephotetix cincticeps)
# Test: Test Example 3: rice seedling dip test, resistant green rice leafhopper
# Format: in vivo
# Details: Nephotettix cincticeps, 24 h, rice seedlings dipped 1 minute; adults of resistant strain; after one day; read-out: LC50 value (ppm)
# Description: The emulsifiable concentrates of the following present compounds and control compounds obtained according to Formulation example 2 were each diluted with water to a prescribed concentration, and rice seedlings (about 12 cm in length) were dipped for 1 minute in the resulting aqueous dilute solutions. After air-drying, the seedlings were placed in test tube, and 10 adults of a resistant strain of green rice leafhopper (Nephotetix cincticeps) were liberated in the tube. After one day, the dead and alive of the adults were examined to obtain LC50 (50% lethal concentration)(two replications).
row,Structure (SMILES),LC50 [µg/mL]
1,C#CC(C)(CCCc1ccc(F)c(Oc2ccccc2)c1)c1ccc(OCC)cc1 (stereo not shown) [(4)],10
2,C#CC(C)(CCCc1ccc(F)c(Oc2ccccc2)c1)c1ccc(OCC)c(Cl)c1 (stereo not shown) [(11)],49
3,C#CC(C)(CCCc1ccc(F)c(Oc2ccccc2)c1)c1ccc(CC)cc1 (stereo not shown) [(39)],21

# Test system: brown rice planthopper (Nila^parvata luqens)
# Test: Test Example 4: rice seedling dip test, brown rice planthopper
# Format: in vivo
# Details: 24 h; rice seedlings dipped 1 minute; adults; after one day; read-out: LC50 value (ppm)
# Description: The emulsifiable concentrates of the-following present compounds and control compounds obtained according to Formulation example 2 were each diluted with water to a prescribed concentration, and the rice seedlings (about 12 cm in length) were dipped for 1 minute in the resulting aqueous dilute solutions. After air-drying, the seedlings were placed in a test tube, and 10 adults of brown rice planthopper (Nila^parvata luqens) were liberated in the tube. After one day, the dead and alive of the adults were examined to obtain LC50 value (50% lethal concentration)(two replications).
row,Structure (SMILES),LC50 [µg/mL]
1,C#CC(C)(CCCc1ccc(F)c(Oc2ccccc2)c1)c1ccc(OCC)cc1 (stereo not shown) [(4)],24
